In patent US8618289B2 (Ambit Biosciences Corporation, priority 2008, dated 2013):

How the values were obtained:
[1] = system: A375 cells; test: cells; settings: Homo sapiens, A-375, read-out: A375 Viability EC50
Protocol: The following day, the medium was replaced with 0.5% FBS in M3 for overnight incubation. […] The cells were incubated with compound or control for 72 hours at 37° C. under 10% CO2. Following incubation, Cell Titer Blue reagent (Promega) was added to each well containing compounds or controls, and then incubated for 3 hours at 37° C. under 10% CO2. Proliferation was measured by fluorescence with excitation at 560 nm and emission at 590 nm using SoftMax Pro.

[2] = system: MEK1 phosphorylation in the A375 human melanoma cell line; test: cells; settings: A-375, read-out: pMEK IC50
[3] = biological target: RAF kinases (Homo sapiens, UniProt P15056, V600E); test: biochemical
[4] = biological target: RAF kinases (Homo sapiens, UniProt P04049); settings: read-out: RAF1 Kd; RAF1
[5] = biological target: RAF kinases (Homo sapiens, UniProt P15056); settings: read-out: BRAF WT Kd; BRAF WT
Sequence of RAF kinases (Homo sapiens, UniProt P15056) (P15056 whole entry): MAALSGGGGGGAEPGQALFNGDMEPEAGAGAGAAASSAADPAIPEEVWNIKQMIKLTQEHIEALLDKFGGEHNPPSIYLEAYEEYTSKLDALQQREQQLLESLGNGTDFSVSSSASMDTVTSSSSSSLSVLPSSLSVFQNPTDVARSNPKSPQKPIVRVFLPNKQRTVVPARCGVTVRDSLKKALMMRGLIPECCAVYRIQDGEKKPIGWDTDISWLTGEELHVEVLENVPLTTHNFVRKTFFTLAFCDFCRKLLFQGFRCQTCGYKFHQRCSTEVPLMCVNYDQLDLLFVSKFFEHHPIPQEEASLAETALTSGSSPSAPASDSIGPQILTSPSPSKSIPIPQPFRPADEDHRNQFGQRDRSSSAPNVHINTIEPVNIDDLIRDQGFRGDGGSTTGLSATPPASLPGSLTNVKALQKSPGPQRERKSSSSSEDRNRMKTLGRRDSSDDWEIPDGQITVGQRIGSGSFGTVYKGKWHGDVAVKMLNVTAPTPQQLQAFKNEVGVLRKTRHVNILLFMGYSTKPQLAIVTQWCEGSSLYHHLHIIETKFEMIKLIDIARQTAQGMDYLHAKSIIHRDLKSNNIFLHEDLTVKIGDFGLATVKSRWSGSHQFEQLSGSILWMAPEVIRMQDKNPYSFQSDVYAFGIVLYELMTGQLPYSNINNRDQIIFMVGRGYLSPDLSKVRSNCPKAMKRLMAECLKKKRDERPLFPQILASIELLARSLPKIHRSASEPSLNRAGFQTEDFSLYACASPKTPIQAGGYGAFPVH

Sequence of RAF kinases (Homo sapiens, UniProt P15056, V600E) (P15056 whole entry V600E): as the sequence (P15056 whole entry) above, with V600E counted along it
Sequence of RAF kinases (Homo sapiens, UniProt P04049) (P04049 whole entry): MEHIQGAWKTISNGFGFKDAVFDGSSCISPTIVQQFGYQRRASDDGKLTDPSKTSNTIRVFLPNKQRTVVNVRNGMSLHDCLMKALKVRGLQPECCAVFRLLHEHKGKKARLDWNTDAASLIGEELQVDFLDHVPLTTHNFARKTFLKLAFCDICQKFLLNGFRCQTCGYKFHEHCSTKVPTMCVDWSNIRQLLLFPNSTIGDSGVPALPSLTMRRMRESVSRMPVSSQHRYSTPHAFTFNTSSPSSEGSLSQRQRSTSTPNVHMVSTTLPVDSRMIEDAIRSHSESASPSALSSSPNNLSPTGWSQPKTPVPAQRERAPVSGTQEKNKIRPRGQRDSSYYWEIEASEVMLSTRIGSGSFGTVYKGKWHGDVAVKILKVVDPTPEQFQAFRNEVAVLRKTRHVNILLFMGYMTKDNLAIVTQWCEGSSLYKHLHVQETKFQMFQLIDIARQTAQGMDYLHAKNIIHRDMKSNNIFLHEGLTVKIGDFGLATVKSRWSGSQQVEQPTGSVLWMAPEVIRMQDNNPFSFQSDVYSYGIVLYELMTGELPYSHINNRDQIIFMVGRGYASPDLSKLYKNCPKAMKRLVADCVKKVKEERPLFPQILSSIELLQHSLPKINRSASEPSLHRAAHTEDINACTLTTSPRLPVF

| SMILES | EC50 [1] [nM] | IC50 [2] [nM] | Kd [3] [nM] | Kd [4] [nM] | Kd [5] [nM] |
| --- | --- | --- | --- | --- | --- |
| COCCOc1cc2ncnc(Oc3cccc(NC(=O)Nc4cc(C(F)(F)F)n(-c5ccccc5)n4)c3)c2cc1OC [Ex 225, 1-{3-[6-methoxy-7-(2-methoxyethoxy)quinazolin-4-yloxy]phenyl}-3-[1-phenyl-5-(trifluoromethyl)-1H-pyrazol-3-yl]urea] | > 1000 | 500 to 1000 | 250 to 500 | > 1000 | > 1000 |
| COCCOc1cc2ncnc(Oc3cccc(NC(=O)Nc4cc(C(F)(F)F)nn4-c4ccc(F)cc4)c3)c2cc1OC [Ex 226, 1-[1-(4-fluorophenyl)-3-(trifluoromethyl)-1H-pyrazol-5-yl]-3-{3-[6-methoxy-7-(2-methoxyethoxy)quinazolin-4-yloxy]phenyl}urea] | > 1000 | 250 to 500 | 500 to 1000 | > 1000 | > 1000 |
| COCCOc1cc2ncnc(Oc3cccc(NC(=O)Nc4cc(C(F)(F)F)nn4-c4ccc(C)cc4)c3)c2cc1OC [Ex 227, 1-{3-[6-methoxy-7-(2-methoxyethoxy)quinazolin-4-yloxy]phenyl}-3-[1-p-tolyl-3-(trifluoromethyl)-1H-pyrazol-5-yl]urea] | 250 to 500 | 250 to 500 | 500 to 1000 | > 1000 | > 1000 |
| COCCOc1cc2ncnc(Oc3cccc(NC(=O)Nc4cc(C(C)(CF)CF)nn4-c4ccccc4)c3)c2cc1OC [Ex 228, 1-[3-(1,3-difluoro-2-methylpropan-2-yl)-1-phenyl-1H-pyrazol-5-yl]-3-{3-[6-methoxy-7-(2-methoxyethoxy)quinazolin-4-yloxy]phenyl}urea] | > 1000 | < 250 | 500 to 1000 | > 1000 | > 1000 |
| COCCOc1cc2ncnc(Sc3cccc(NC(=O)Nc4ccc(C(F)(F)F)c(F)c4)c3)c2cc1OC [Ex 231, 1-(3-fluoro-4-(trifluoromethyl)phenyl)-3-(3-(6-methoxy-7-(2-methoxyethoxy)quinazolin-4-ylthio)phenyl)urea] | > 1000 | > 1000 | 500 to 1000 | > 1000 | > 1000 |
| COCCOc1cc2ncnc(Sc3cccc(NC(=O)Nc4ccc(C(F)(F)F)c(OC)c4)c3)c2cc1OC [Ex 233, 1-(3-methoxy-4-(trifluoromethyl)phenyl)-3-(3-(6-methoxy-7-(2-methoxyethoxy)quinazolin-4-ylthio)phenyl)urea] | > 1000 | > 1000 | 500 to 1000 | > 1000 | > 1000 |
| CCOC(=O)Cn1nc(C(C)(C)C)cc1NC(=O)Nc1cccc(Sc2ncnc3cc(OCCOC)c(OC)cc23)c1 [Ex 237, ethyl 2-[3-tert-butyl-5-(3-{3-[6-methoxy-7-(2-methoxyethoxy)quinazolin-4-ylthio]phenyl}ureido)-1H-pyrazol-1-yl]acetate] | > 1000 | 500 to 1000 | 500 to 1000 | > 1000 | > 1000 |
| COc1cc2ncnc(Oc3cc(NC(=O)Nc4cc(C(F)(F)F)nn4-c4ccccc4)c(F)cc3F)c2cc1OC [Ex 271, 1-(5-(6,7-dimethoxyquinazolin-4-yloxy)-2,4-difluorophenyl)-3-(1-phenyl-3-(trifluoromethyl)-1H-pyrazol-5-yl)urea] | 250 to 500 | < 250 | 250 to 500 | > 1000 | > 1000 |
| COCCOc1cc2ncnc(Sc3cccc(NC(=O)Nc4cc(C(C)(C)C)nn4-c4ccc(C)cc4C)c3)c2cc1OC [Ex 283, 1-(3-tert-butyl-1-(2,4-dimethylphenyl)-1H-pyrazol-5-yl)-3-(3-(6-methoxy-7-(2-methoxyethoxy)quinazolin-4-ylthio)phenyl)urea] | > 1000 | < 250 | 500 to 1000 | > 1000 | > 1000 |
